Assay results published in patent US10202361B2, “Pyridazinones as herbicides” (E I DU PONT DE NEMOURS AND COMPANY, priority 2014, dated 2019).
Read-outs that look alike come from different tables or passages of the source.

Assays:
Type in all cases: in vivo
[1] = system: ducksalad (Heteranthera limosa); assay: Test B flooded paddy test; conditions: Heteranthera limosa, 312 h; Flood, 250 g ai/ha; scale of 0 to 100, 0 is no effect, 100 is complete control; 13 to 15 d; read-out: Plant response rating, Ducksalad
Procedure, shortened: (§1)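 Visual ratings, 0 meaning no effect and 100 complete control, were made relative to untreated controls 13–15 d after treatment in a greenhouse. Treatment was by addition to paddy water 3 cm above the soil, maintained for the test, on 2-leaf-stage plants.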

[2] = system: sedge, umbrella (small-flower umbrella sedge, Cyperus difformis); assay: Test B flooded paddy test; conditions: Cyperus difformis, 312 h; Flood, 250 g ai/ha; scale of 0 to 100, 0 is no effect, 100 is complete control; 13 to 15 d; read-out: Plant response rating, Sedge, Umbrella
Procedure, shortened: as §1

[3] = system: barnyardgrass (Echinochloa crus-galli); assay: Test B flooded paddy test; conditions: Echinochloa crus-galli, 312 h; Flood, 250 g ai/ha; scale of 0 to 100, 0 is no effect, 100 is complete control; 13 to 15 d; read-out: Plant response rating, Barnyardgrass
Procedure, shortened: as §1

rice (Oryza sativa) = assay: Test B flooded paddy test; conditions: Oryza sativa, 312 h; Flood, 250 g ai/ha; scale of 0 to 100, 0 is no effect, 100 is complete control; 13 to 15 d; read-out: Plant response rating, Rice
Procedure, shortened: as §1

[4] = system: oat, wild (wild oat, Avena fatua); assay: Test C pre-/postemergence greenhouse herbicide test
From the text: (§2) Seeds of plant species selected from blackgrass (Alopecurus myosuroides), bromegrass, downy (downy bromegrass, Bromus tectorum), foxtail, green (green foxtail, Setaria viridis), ryegrass, Italian (Italian ryegrass, Lolium multiflorum), wheat (winter wheat, Triticum aestivum), oat, wild (wild oat, Avena fatua), galium (catchweed bedstraw, Galium aparine), bermudagrass (Cynodon dactylon), surinam grass (Brachiaria decumbens), cocklebur (common cocklebur, Xanthium strumarium), corn (Zea mays), crabgrass, large (large crabgrass, Digitaria sanguinalis), cupgrass, woolly (woolly cupgrass, Eriochloa villosa), foxtail, giant (giant foxtail, Setaria faberii), goosegrass (Eleusine indica), johnsongrass (Sorghum halepense), kochia (Kochia scoparia), lambsquarters (Chenopodium album), morningglory (Ipomoea coccinea), nightshade (eastern black nightshade, Solanum ptycanthum), nutsedge, yellow (yellow nutsedge, Cyperus esculentus), pigweed (Amaranthus retroflexus), ragweed (common ragweed, Ambrosia elatior), soybean (Glycine max), sunflower (common oilseed sunflower, Helianthus annuus), Russian thistle (Salsola kali), barnyardgrass (Echinochloa crus-galli), oilseed rape (Brassica napus), waterhemp (common waterhemp, Amaranthus rudis), and velvetleaf (Abutilon theophrasti) were planted into a blend of loam soil and sand and treated preemergence with test chemicals formulated in a non-phytotoxic solvent mixture which included a surfactant.
(§3) At the same time, plants selected from these crop and weed species and also barley (winter barley, Hordeum vulgare), canarygrass (Phalaris minor), windgrass (Apera spica-venti), deadnettle (henbit deadnettle, Lamium amplexicaule), and chickweed (common chickweed, Stellaria media) were planted in pots containing Redi-Earth® planting medium (Scotts Company, 14111 Scottslawn Road, Marysville, Ohio 43041) comprising spaghnum peat moss, vermiculite, wetting agent and starter nutrients and treated with postemergence applications of test chemicals formulated in the same manner. Plants ranged in height from 2 to 18 cm (1- to 4-leaf stage) for postemergence treatments. Treated plants and controls were maintained in a greenhouse for 13 to 15 d, after which time all species were compared to controls and visually evaluated. Plant response ratings, summarized in Table C, are based on a scale of 0 to 100 where 0 is no effect and 100 is complete control. A dash (-) response means no test result.

[5] = system: ragweed (common ragweed, Ambrosia elatior); assay: as above; conditions: Ambrosia artemisiifolia, Ragweed, read-out: Plant response rating; for pest or weed control at 31 g/ha: 31 g ai/ha; for pest or weed control at 62 g/ha: 62 g ai/ha; for pest or weed control at 125 g/ha: 125 g ai/ha; for pest or weed control at 250 g/ha: 250 g ai/ha
From the text: as §2, §3

kochia (Kochia scoparia) = assay: as above
From the text: as §2, §3

[6] = system: galium (catchweed bedstraw, Galium aparine); assay: as above; conditions: Galium, read-out: Plant response rating; for pest or weed control at 31 g/ha: 31 g ai/ha; for pest or weed control at 62 g/ha: 62 g ai/ha; for pest or weed control at 125 g/ha: 125 g ai/ha; for pest or weed control at 250 g/ha: 250 g ai/ha
From the text: as §2, §3

[7] = system: johnsongrass (Sorghum halepense); assay: as above; conditions: Sorghum halepense, Johnsongrass, read-out: Plant response rating; for pest or weed control at 31 g/ha: 31 g ai/ha; for pest or weed control at 62 g/ha: 62 g ai/ha; for pest or weed control at 125 g/ha: 125 g ai/ha; for pest or weed control at 250 g/ha: 250 g ai/ha
From the text: as §2, §3

[8] = system: chickweed (common chickweed, Stellaria media); assay: Test C postemergence greenhouse herbicide test
From the text: as §3

## Cc1cc(=O)n(-c2ccc(F)cc2)nc1Oc1ccnc(C(F)(F)F)c1 [Compound 14, 2-(4-fluorophenyl)-5-methyl-6-[[2-(trifluoromethyl)-4-pyridinyl]oxy]-3 (2H)-pyridazinone]
[1]
  pest or weed control at 250 g/ha: 75%
[2]
  pest or weed control at 250 g/ha: 75%
[3]
  pest or weed control at 250 g/ha: 40%
Rice (Oryza sativa)
  plant injury at 250 g/ha: 30%
[4]; Postemergence, 31 g ai/ha
  Plant response rating: 20
[4]; Postemergence, 62 g ai/ha
  Plant response rating: 30
[4]; Postemergence, 125 g ai/ha
  Plant response rating: 30
[4]; Postemergence, 250 g ai/ha
  Plant response rating: 30
[4]; Preemergence, 31 g ai/ha
  Plant response rating: 0
[4]; Preemergence, 62 g ai/ha
  Plant response rating: 0
[4]; Preemergence, 125 g ai/ha
  Plant response rating: 65
[4]; Preemergence, 250 g ai/ha
  Plant response rating: 65
[5]; post-emergence, Postemergence
  pest or weed control at 31 g/ha: 50%
  pest or weed control at 62 g/ha: 50%
  pest or weed control at 125 g/ha: 60%
  pest or weed control at 250 g/ha: 70%
[5]; pre-emergence, Preemergence
  pest or weed control at 31 g/ha: 5%
  pest or weed control at 62 g/ha: 15%
  pest or weed control at 125 g/ha: 30%
  pest or weed control at 250 g/ha: 55%
Kochia (Kochia scoparia); Postemergence, 31 g ai/ha
  Plant response rating: 25
Kochia (Kochia scoparia); Postemergence, 62 g ai/ha
  Plant response rating: 35
Kochia (Kochia scoparia); Postemergence, 125 g ai/ha
  Plant response rating: 55
Kochia (Kochia scoparia); Postemergence, 250 g ai/ha
  Plant response rating: 80
Kochia (Kochia scoparia); Preemergence, 31 g ai/ha
  Plant response rating: 45
Kochia (Kochia scoparia); Preemergence, 62 g ai/ha
  Plant response rating: 75
Kochia (Kochia scoparia); Preemergence, 125 g ai/ha
  Plant response rating: 90
Kochia (Kochia scoparia); Preemergence, 250 g ai/ha
  Plant response rating: 90
[6]; post-emergence, Postemergence
  pest or weed control at 31 g/ha: 50%
  pest or weed control at 62 g/ha: 55%
  pest or weed control at 125 g/ha: 55%
  pest or weed control at 250 g/ha: 75%
[6]; pre-emergence, Preemergence
  pest or weed control at 31 g/ha: 60%
  pest or weed control at 62 g/ha: 98%
  pest or weed control at 125 g/ha: 100%
  pest or weed control at 250 g/ha: 100%
[7]; post-emergence, Postemergence
  pest or weed control at 31 g/ha: 10%
  pest or weed control at 62 g/ha: 15%
  pest or weed control at 125 g/ha: 25%
  pest or weed control at 250 g/ha: 30%
[7]; pre-emergence, Preemergence
  pest or weed control at 31 g/ha: 5%
  pest or weed control at 62 g/ha: 35%
  pest or weed control at 125 g/ha: 35%
  pest or weed control at 250 g/ha: 85%
[8]; 31 g ai/ha
  Plant response rating: 35
[8]; 62 g ai/ha
  Plant response rating: 35
[8]; 125 g ai/ha
  Plant response rating: 35
[8]; 250 g ai/ha
  Plant response rating: 55
